Activity calls are given as the source filed them.

Experiment [1] addresses T1, Apoptotic protease-activating factor 1 (Homo sapiens, UniProt O14727).
T1 sequence (O14727 whole entry): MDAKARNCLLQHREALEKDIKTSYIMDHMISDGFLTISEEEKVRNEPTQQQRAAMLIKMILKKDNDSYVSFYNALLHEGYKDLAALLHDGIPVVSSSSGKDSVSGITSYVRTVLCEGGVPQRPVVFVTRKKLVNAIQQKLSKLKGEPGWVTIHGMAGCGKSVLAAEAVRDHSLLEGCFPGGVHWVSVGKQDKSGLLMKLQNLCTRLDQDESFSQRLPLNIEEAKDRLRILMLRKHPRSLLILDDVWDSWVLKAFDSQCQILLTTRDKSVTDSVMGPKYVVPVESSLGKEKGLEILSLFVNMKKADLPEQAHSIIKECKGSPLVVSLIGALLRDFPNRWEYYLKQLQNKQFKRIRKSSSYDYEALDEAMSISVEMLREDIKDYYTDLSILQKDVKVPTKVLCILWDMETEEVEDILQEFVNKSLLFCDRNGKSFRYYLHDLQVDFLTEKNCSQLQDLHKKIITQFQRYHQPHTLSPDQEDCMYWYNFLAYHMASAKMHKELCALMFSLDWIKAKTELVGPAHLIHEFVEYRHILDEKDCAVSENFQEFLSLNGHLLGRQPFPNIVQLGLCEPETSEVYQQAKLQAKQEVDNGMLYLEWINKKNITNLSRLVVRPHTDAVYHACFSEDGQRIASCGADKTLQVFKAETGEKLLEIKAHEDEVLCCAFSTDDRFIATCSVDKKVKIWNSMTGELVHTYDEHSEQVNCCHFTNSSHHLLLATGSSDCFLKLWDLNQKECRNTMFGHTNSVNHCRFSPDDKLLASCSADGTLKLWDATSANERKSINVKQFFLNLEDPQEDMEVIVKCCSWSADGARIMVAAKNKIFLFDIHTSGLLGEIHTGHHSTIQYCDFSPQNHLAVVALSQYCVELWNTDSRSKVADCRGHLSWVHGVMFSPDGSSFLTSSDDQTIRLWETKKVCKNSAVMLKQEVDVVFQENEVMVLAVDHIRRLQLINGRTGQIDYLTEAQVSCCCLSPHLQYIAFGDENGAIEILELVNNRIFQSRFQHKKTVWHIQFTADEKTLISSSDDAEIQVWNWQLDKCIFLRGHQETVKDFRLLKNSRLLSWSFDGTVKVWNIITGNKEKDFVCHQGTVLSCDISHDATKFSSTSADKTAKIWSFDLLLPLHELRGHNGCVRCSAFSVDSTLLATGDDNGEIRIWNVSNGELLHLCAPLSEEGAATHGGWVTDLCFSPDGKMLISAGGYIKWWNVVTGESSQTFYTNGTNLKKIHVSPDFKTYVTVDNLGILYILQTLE
Type of experiment: functional.

Experiment [2] concerns the target T2, Hexokinase-1 (Homo sapiens, UniProt P19367).
T2 sequence (P19367 whole entry): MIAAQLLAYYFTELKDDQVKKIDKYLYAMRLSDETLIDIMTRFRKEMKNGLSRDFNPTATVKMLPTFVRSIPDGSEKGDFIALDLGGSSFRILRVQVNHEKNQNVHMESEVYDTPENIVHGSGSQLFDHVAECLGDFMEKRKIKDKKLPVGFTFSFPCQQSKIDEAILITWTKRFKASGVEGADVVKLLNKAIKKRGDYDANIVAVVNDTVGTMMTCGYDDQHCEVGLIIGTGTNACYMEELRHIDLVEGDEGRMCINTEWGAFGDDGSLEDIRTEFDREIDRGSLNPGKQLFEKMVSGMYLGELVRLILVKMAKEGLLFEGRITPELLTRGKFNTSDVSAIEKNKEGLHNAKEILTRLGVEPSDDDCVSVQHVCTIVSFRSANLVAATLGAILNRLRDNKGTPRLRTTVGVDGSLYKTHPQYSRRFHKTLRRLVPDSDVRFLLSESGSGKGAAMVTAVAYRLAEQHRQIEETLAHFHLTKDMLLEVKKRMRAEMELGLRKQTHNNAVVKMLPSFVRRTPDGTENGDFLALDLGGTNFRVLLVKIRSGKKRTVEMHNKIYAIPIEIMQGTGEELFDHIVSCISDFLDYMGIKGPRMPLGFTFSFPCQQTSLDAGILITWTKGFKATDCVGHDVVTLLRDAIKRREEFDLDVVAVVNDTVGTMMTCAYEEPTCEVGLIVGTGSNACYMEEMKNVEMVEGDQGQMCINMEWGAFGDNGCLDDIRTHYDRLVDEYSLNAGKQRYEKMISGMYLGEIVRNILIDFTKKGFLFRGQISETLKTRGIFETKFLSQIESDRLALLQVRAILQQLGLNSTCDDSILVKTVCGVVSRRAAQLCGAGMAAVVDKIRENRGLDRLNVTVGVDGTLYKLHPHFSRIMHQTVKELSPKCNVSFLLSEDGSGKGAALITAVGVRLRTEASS
Briefly: HK1 enzyme activation by HKDC1 hits – biochemical, selectivity assay for HKDC1 activator project, dose response (AID 504762). Type of experiment: functional.

Take `Clc1ccc(/N=c2\ssnc2Cl)nc1`: the IC50 in experiment [1] was 14.3 µM (active). Besides, the EC50 in experiment [2] is 65.4 µM (inactive).

A word on the IC50: it is the concentration at which inhibition is half-maximal. The term EC50 denotes the concentration needed to bring the measured effect to its halfway point.

For the origin of these results see ChEMBL document CHEMBL1201862, “PubChem BioAssay data set” (2004).
